Source: PMC8158701, “Characterization of the CYP3A4 Enzyme Inhibition Potential of Selected Flavonoids” (Molecules, 2021)
Read-outs that look alike come from different tables or passages of the source.

Assays:
[1] = molecular target: T1, CYP3A4 (Homo sapiens, UniProt P08684); assay: CYP3A4 inhibition and inactivation kinetics, nifedipine oxidation as marker reaction
Method: Enzyme incubations were performed in triplicate, with mechanical stirring in a water bath at 37 °C. Aliquots of flavonoids with a final concentration of 1 μM were dissolved in methanol, transferred to glass tubes, and evaporated to dryness, except in control samples without the inhibitor (flavonoid). After the evaporation of the solvent, an incubation mixture was prepared to a volume of 100 μL, consisting of 5 pmol CYP3A4 enzyme, 50 mM potassium phosphate buffer (pH 7.4), and ultrapure water. An NADPH generating system composed of 0.1 M G6P: 10 mg/mL NADP^+: 1000 IU/mL G6PDH = 50:25:1 (v/v/v) was prepared immediately before use. This generating system contains glucose-6-phosphate dehydrogenase that regenerates NADP^+ into NADPH, keeping the concentration of the cytochrome P450 coenzyme (NADPH) constant in the incubation. The addition of the generating system (15% of the volume in the final incubation, v/v) started the reaction. Nifedipine was used to test out the residual enzyme activity at a final concentration of 200 μM. The reaction was stopped using 1 mL of ice-cold 1% solution of formic acid in dichloromethane. The samples were mixed, then centrifuged for 10 min on 1900g (Rotofix 32, Westfalia, Germany). After centrifugation, two layers were formed (water and organic layer). 850 µL of the organic layer was transferred to cuvettes and evaporated. The analyte was then dissolved in 30 µL of methanol. An Agilent Zorbax SB C18 column (4.6 × 250 mm, 3 μm, Agilent Technologies, Santa Clara, CA, USA) was used to analyze the samples by HPLC. The mobile phase was composed of methanol and water in a ratio of 64:36. The analysis was isocratic. The flow was set at 1.0 mL min^−1. The injection volume was set at 10 µL. Nifedipine was used as a marker substrate. The reaction observed was the oxidation of nifedipine. Chromatograms were recorded at 254 nm. The duration of the analysis was set at 25 min. The retention time of nifedipine is 7.1 min and that of oxidized nifedipine is 10.8 min [42]. […] For all the flavonoids, half maximal inhibitory concentration (IC50), constant of inhibition (Ki), constant of inactivation speed (kinact), and inactivation efficacy (kinact/Ki) were determined.
A one-sided t-test would be used to assess the statistical significance in the differences between samples and controls, based on measurements of residual activity. A nonlinear equation was used to calculate the IC50 value. The Michaelis-Menten equation was used to determine the inactivation constant and the inactivation rate of the inhibitor. Statistical processing and graph preparations were done using Program R (The R Project for Statistical Computing, Vienna, Austria) and Microsoft Excel (Microsoft, Redmond, WA, USA).

[2] = molecular target: T1, CYP3A4; set-up: purchased Thermo Fisher Scientific (Waltham, MA, USA); host or cells: baculosomes (baculovirus-infected insect cell microsomes); conditions: cited from earlier work; for inhibition of CYP3A4: 1 µM concentration, testosterone as marker substrate; for IC50 / Ki / kinact / kinact/Ki: testosterone (TSN) as marker substrate
[3] = combination treatment of apigenin and paclitaxel in vivo; cited from earlier work
[4] = set-up: method as in PMID 17093006; conditions: rats, chrysin 20–100 µM; cited from earlier work
[5] = molecular target: T1, CYP3A4; assay: Pseudo-irreversible inhibition assay (incubation, dialysis with or without potassium hexacyanoferrate, testosterone marker); format: biochemical; set-up: purchased Thermo Fisher Scientific (Waltham, MA, USA); host or cells: baculosomes (baculovirus-infected insect cell microsomes); conditions: after incubation and dialysis (Figure 4)
Method: The aim of this assay is to test out the formation of covalent complexes with ferrous iron (Fe^2+), by assessing a recovery of enzyme activity after dialysis with or without the addition of an oxidant. Three types of experiments were performed for each flavonoid: incubation mixture without flavonoids (control), incubation mixture with flavonoid, and incubation mixture with flavonoid to which oxidant was added after incubation. Each incubation with the inhibitor was performed for 30 min using the same experimental settings as described above (Section 4.2.1). After incubation, the samples were transferred to dialysis cartridges. Aa oxidant—20 mM solution of potassium hexacyanoferrate was added to one of the incubations before dialysis. The cassettes (Slide-A-Lyzer Dialysis Cassettes, Thermo Fisher Scientific, Waltham, MA, USA) were immersed in 50 mM potassium phosphate buffer solution (pH 7.4) for 30 min (dialysis solution was exchanged three times). After dialysis, the samples were transferred from the cassette back to the glass tube, and the residual enzyme activity was assessed using testosterone as a marker substrate (200 μM final concentration). As the NADPH generating system was also dialyzed, it was again added to the incubations to initiate enzyme reaction. […] The samples were analyzed by HPLC.

[6] = set-up: method as in PMID 7937537; conditions: healthy volunteers; cited from earlier work
[7] = human, CYP3A4 enzyme, pH 7.4, probe nifedipine (200 µM), nifedipine oxidation
[8] = human, CYP3A4 enzyme, pH 7.4, probe nifedipine (200 µM), nifedipine oxidation, kinact/Ki (inactivation efficiency), nifedipine (NIF) as marker substrate, ratio of inactivation rate constant and inhibition constant
[9] = nifedipine (NIF) as marker substrate, ratio of inactivation rate constant and inhibition constant

T1 sequence (P08684 whole entry): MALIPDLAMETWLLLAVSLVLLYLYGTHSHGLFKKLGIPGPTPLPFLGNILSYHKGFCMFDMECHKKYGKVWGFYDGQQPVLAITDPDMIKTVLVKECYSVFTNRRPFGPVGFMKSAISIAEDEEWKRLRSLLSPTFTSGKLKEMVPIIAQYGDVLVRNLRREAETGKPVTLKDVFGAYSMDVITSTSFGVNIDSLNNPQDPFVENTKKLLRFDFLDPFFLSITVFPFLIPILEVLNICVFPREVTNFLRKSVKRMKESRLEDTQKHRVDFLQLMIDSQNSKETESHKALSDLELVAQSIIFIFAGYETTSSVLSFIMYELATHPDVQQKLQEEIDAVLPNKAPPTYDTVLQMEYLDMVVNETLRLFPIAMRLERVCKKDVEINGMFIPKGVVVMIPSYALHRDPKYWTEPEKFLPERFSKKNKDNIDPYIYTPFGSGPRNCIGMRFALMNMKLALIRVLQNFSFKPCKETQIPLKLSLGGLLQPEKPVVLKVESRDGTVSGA

| Compound | IC50 [1] [µM] | Ki [1] [µM] | kinact [1, 7] [s⁻¹] | kinact/KI [1, 8] [M⁻¹ s⁻¹] | kinact/Ki (inactivation efficiency) [1, 9] [M⁻¹ s⁻¹] | inhibition of CYP3A4 [2] | IC50 [2] [µM] | Ki [2] [µM] | kinact [2] [min⁻¹] | kinact/Ki [2] [M⁻¹ s⁻¹] | oral bioavailability of paclitaxel [3] | AUC and peak serum concentration (Cmax) of nitrofurantoin [4] | kinact ([1]; human, pH 7.4) [s⁻¹] | kinact/Ki (inactivation efficiency) ([1]; human, pH 7.4) [M⁻¹ s⁻¹] | kinact/KI ([1]; human, pH 7.4, kinact/Ki (inactivation efficiency)) [M⁻¹ s⁻¹] | reduction of enzyme activity [5] | increase in AUC of cerivastatin [6] [%] |
| --- | --- | --- | --- | --- | --- | --- | --- | --- | --- | --- | --- | --- | --- | --- | --- | --- | --- |
| COc1ccc(-c2cc(=O)c3c(O)cc(O)cc3o2)cc1 [acacetin] | 7.5 ± 2.7 | 12.1 ± 5.6 | 0.00167 | ~167 | 130 | statistically significant inhibition | 10.9 ± 0.3 | 6 ± 3 | 0.036 ± 0.006 | 100 | – | – | – | – | – | – | – |
| O=c1cc(-c2ccc(O)cc2)oc2cc(O)cc(O)c12 [apigenin] | – | – | – | – | – | statistically significant inhibition | – | – | – | – | increase in oral bioavailability of paclitaxel | – | – | – | – | – | – |
| O=c1cc(-c2ccccc2)oc2cc(O)cc(O)c12 [chrysin, 5,7-dihydroxy-flavone] | 2.5 ± 0.6 | 2.4 ± 1 | – | – | – | statistically significant inhibition | 0.6 ± 0.5 | 0.6 ± 0.3 | 0.065 ± 0.005 | 1800 | – | significantly increased | 0.00117 | 483 | 500 | approximately 99% | – |
| CC[C@H]1OC(=O)[C@H](C)[C@@H](O[C@H]2C[C@@](C)(OC)[C@@H](O)[C@H](C)O2)[C@H](C)[C@@H](O[C@@H]2O[C@H](C)C[C@H](N(C)C)[C@H]2O)[C@](C)(O)C[C@@H](C)C(=O)[C@H](C)[C@@H](O)[C@]1(C)O [erythromycin] | – | – | – | – | – | – | – | – | – | – | – | – | – | – | – | – | 21 |
| O=C1CC(c2ccccc2)Oc2cc(O)cc(O)c21 (centres unmarked) [pinocembrin, 5,7-dihydroxy-flavanone] | 4.3 ± 1.1 | 5.1 ± 1.6 | 0.000667 | ~167 | 130 | statistically significant inhibition | 5 ± 0.6 | 1.2 ± 0.3 | 0.018 ± 0.001 | 250 | – | – | – | – | – | – | – |
